According to paper PMC5128878 (Scientific Reports, 2016):
Where “and” joins values, the source holds several entries; their conditions need not be identical. Equal values may be shown once. Read-outs that look alike come from different tables or passages of the source.

Tests used:
[1] = biological target: T1, α4β4 nAChR (Rattus norvegicus, UniProt P09483+P12392); assay: cell-based; assay type: cell-based; details: for IC50: IC50 (95% CI), ACh 10 μM
T1 construct: expressed in transfected cells; host or cells: Xenopus laevis oocytes injected with cRNA
T1 sequence (P09483 31-630): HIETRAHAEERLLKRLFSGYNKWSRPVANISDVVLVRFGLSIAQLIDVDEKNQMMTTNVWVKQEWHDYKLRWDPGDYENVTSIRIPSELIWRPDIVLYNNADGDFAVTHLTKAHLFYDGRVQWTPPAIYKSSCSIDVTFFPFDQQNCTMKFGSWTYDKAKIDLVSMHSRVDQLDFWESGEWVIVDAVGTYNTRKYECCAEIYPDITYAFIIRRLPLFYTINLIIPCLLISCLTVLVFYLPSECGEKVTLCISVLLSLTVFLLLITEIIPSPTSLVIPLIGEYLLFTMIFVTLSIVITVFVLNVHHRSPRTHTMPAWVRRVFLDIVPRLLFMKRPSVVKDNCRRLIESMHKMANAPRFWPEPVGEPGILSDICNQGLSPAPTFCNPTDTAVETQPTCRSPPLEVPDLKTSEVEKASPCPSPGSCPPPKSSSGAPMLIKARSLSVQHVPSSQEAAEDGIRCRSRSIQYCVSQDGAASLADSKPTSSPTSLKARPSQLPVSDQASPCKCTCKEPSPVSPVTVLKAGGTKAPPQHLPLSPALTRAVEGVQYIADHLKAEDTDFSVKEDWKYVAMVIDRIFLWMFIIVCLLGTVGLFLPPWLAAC
T1 sequence (P12392 21-495): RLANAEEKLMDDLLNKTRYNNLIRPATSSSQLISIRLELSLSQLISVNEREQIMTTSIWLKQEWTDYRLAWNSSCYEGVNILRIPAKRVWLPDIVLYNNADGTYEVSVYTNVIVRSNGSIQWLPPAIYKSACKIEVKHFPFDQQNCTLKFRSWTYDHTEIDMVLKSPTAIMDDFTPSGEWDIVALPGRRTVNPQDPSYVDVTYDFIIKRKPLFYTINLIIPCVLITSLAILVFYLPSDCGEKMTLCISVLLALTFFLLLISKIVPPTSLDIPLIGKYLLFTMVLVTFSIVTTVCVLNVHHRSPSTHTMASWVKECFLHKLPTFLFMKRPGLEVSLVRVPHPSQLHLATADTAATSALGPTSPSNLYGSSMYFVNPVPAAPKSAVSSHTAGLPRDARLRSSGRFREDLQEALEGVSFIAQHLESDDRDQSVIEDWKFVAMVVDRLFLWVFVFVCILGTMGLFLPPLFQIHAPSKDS
Experimental: (§1) Oocytes isolated from mature female Xenopus laevis were supplied by the European Xenopus Resource Centre, University of Portsmouth, UK. Oocytes were treated with collagenase (0.5 mg/ml, Sigma type 1 A) in Ca^2+-free solution (96 mM NaCl, 2 mM KCl, 1 mM MgCl2, 5 mM HEPES, 2.5 mM Na-pyruvate, 100 U/mL penicillin, 0.1 mg/mL streptomycin, pH 7.5) with shaking at 19 °C to defolliculate and remove the connective tissue surrounding the cells. After separation, oocytes were washed 7 times with modified Barth’s solution (96 mM NaCl, 2 mM KCl, 1.8 mM CaCl2, 1 mM MgCl2, 5 mM HEPES, 2.5 mM Na-pyruvate, 0.5 mM theophylline, 50 μg/mL gentamicin, pH 7.5) and kept at 19 °C in the same solution.
(§2) Healthy oocytes were injected with cRNA using a Nano-liter Injector (World Precision Instruments Inc, USA). Mixtures of nAChR subunit cRNAs were injected as follows; for heteromeric rat neuronal receptors a 1:1 ratio of α:β at 200 ng/μL; for mouse embryonic muscle a 1:1:1:1 ratio of α:β:γ:δ at 25 ng/μL; human α7 at 100 ng/μL was mixed with RIC-3 at 30 ng/μL. Each oocyte was injected with 50 nL of RNA solution. Injected oocytes were saved in Barth’s solution at 19 °C for two to three days for expression of the target protein. During this time oocytes were regularly checked to remove unhealthy ones.
(§3) Electrophysiological recordings were taken from nAChR-expressing oocytes by two-electrode voltage clamp using a Geneclamp 500 voltage clamp amplifier (Axon instruments, USA). An oocyte was placed in the perfusion chamber using a plastic Pasteur pipette and the bath was perfused (~5 mL/min) with fresh Frog Ringer solution (96 mM NaCl, 2 mM KCl, 1.8 mM CaCl2 and 5 mM HEPES, pH 7.5). Microelectrodes were pulled from borosilicate glass capillaries (Harvard GC150TF-10) using a programmable micropipette puller (Sutter P97, USA), and they had resistances between 0.5 and 2.5 MΩ when filled with 3 M KCl. The oocyte was voltage-clamped at holding potentials (VH) between −60 and −100 mV. […] Currents were recorded to a PC via a digidata 1200 analog-to-digital converter (Axon Instuments, USA) using WinEDR v3.2.6 Software (Dr John Dempster, University of Strathclyde, UK).
(§4) Graphpad Prism 6 was used for data analysis, graph plotting and curve fitting. All plotted points are the mean ± SEM obtained from 4–20 oocytes.

[2] = biological target: T2, α3β4(F255V) nAChR (Rattus norvegicus, UniProt P04757+P12392, F275V); assay: Two-electrode voltage clamp of ACh currents, α3β4(F255V) nAChRs expressed in Xenopus oocytes; assay type: cell-based; details: for IC50: α3β4(F255V), ACh 100 μM
T2 construct: expressed in transfected cells; host or cells: Xenopus laevis oocytes injected with cRNA
T2 sequence (P04757 26-499): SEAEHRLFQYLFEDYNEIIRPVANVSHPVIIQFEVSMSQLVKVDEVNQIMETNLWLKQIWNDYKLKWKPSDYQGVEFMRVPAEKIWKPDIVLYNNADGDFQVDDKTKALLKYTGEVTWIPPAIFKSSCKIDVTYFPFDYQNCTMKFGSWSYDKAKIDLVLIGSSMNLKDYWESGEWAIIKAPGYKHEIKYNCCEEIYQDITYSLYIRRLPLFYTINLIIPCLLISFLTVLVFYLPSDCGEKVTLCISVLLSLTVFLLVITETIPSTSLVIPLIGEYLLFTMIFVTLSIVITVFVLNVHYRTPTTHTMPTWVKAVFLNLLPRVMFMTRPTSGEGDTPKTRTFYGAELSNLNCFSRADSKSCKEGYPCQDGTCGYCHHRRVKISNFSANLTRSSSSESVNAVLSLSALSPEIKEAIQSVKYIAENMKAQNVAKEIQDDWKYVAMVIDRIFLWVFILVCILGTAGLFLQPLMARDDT
T2 sequence (P12392 21-495 F275V): as the sequence (P12392 21-495) above, with F255V counted along it
Experimental: (§5) cDNA clones of rat neuronal nAChR subunits (α3, α4, β2 and β4) and mouse muscle subunits (α1, β1, γ and δ) were from the Salk Institute for Biological Studies (Professor Stephen Heinemann). The human α7 and RIC-3 cDNAs were provided by Professor David Sattelle (University College London).
as §1, §2, §3, §4

[3] = biological target: T3, α7 nAChR (Homo sapiens, UniProt P36544); assay: Two-electrode voltage clamp of ACh currents, α7 nAChRs (with RIC-3) expressed in Xenopus oocytes; assay type: cell-based; details: for IC50: IC50 (95% CI), ACh 100 μM
T3 construct: expressed in transfected cells; host or cells: Xenopus laevis oocytes injected with cRNA
T3 sequence (P36544 23-502): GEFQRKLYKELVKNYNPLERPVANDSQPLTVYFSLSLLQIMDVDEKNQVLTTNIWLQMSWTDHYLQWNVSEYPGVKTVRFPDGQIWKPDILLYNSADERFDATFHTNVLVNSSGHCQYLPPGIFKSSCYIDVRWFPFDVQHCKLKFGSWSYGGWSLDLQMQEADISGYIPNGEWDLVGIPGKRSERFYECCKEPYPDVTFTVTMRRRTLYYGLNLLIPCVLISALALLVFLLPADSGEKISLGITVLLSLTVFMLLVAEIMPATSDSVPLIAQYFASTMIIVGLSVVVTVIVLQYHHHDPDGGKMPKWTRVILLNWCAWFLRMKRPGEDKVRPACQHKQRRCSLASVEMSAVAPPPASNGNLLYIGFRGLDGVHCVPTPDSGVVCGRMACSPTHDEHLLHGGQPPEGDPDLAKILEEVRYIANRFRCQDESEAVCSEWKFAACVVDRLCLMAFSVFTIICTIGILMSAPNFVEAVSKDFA
Experimental: as §1, §2, §3, §4

[4] = biological target: α3β2 nAChR (Rattus norvegicus, UniProt P04757+P12390); assay: Two-electrode voltage clamp of ACh currents, α3β2 nAChRs expressed in Xenopus oocytes; details: for IC50: IC50 (95% CI), ACh 30 μM
α3β2 nAChR, sequence (P04757 26-499): as the sequence (P04757 26-499) above
α3β2 nAChR, sequence (P12390 25-500): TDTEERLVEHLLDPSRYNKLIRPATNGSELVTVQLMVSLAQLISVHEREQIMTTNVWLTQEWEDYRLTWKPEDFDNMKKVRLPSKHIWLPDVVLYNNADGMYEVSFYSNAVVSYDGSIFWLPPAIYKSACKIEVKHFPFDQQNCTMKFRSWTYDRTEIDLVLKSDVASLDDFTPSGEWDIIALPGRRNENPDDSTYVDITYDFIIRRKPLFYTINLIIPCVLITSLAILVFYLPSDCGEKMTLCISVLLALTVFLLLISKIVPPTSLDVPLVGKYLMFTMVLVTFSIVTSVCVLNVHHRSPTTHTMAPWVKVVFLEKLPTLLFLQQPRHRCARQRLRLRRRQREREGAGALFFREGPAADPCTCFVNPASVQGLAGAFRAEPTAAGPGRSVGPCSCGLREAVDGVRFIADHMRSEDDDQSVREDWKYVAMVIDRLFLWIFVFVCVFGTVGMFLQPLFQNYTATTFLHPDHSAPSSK
Experimental: as §1, §2, §3, §4

[5] = biological target: T4, α4β2 nAChR (Rattus norvegicus, UniProt P09483+P12390); assay: cell-based; assay type: cell-based; details: for IC50: IC50 (95% CI), ACh 10 μM
T4 construct: expressed in transfected cells; host or cells: Xenopus laevis oocytes injected with cRNA
T4 sequence (P09483 31-630): as the sequence (P09483 31-630) above
T4 sequence (P12390 25-500): as the sequence (P12390 25-500) above
Experimental: as §5, §1, §2, §3, §4

[6] = biological target: T5, α3β4 nAChR (Rattus norvegicus, UniProt P04757+P12392); assay: cell-based; details: for IC50: IC50 (95% CI)
T5 construct: expressed in transfected cells; host or cells: Xenopus laevis oocytes injected with cRNA
T5 sequence (P04757 26-499): as the sequence (P04757 26-499) above
T5 sequence (P12392 21-495): as the sequence (P12392 21-495) above
Experimental: as §1, §2, §3, §4

[7] = tested on: nAChRs expressed by PC12 cells; details: patch-clamp study of PC12 cells ref 14; cited from earlier work
[8] = tested on: nAChRs; assay: Two-electrode voltage clamp of Xenopus oocytes expressing nAChRs, statements across tested subtypes; assay type: cell-based
Experimental: as §5, §1, §2, §3, §4

[9] = biological target: T6, α1β1γδ nAChR (Mus musculus, UniProt P02716+P04756+P04760+P09690); assay: cell-based; assay type: cell-based; details: for IC50: IC50 (95% CI), ACh 10 μM
T6 construct: expressed in transfected cells; host or cells: Xenopus laevis oocytes injected with cRNA
T6 sequence (P04756 21-457): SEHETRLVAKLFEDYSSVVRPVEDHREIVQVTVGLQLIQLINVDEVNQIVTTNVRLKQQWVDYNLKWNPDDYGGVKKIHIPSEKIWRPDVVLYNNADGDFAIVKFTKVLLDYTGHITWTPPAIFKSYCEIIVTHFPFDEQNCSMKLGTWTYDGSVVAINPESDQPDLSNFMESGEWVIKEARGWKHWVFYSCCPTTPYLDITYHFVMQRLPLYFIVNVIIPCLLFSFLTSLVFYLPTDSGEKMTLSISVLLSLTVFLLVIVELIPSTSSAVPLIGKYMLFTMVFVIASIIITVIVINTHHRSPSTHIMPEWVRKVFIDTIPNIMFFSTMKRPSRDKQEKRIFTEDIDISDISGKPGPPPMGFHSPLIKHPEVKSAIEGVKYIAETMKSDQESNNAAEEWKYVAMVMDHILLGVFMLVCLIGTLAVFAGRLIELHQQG
T6 sequence (P09690 24-501): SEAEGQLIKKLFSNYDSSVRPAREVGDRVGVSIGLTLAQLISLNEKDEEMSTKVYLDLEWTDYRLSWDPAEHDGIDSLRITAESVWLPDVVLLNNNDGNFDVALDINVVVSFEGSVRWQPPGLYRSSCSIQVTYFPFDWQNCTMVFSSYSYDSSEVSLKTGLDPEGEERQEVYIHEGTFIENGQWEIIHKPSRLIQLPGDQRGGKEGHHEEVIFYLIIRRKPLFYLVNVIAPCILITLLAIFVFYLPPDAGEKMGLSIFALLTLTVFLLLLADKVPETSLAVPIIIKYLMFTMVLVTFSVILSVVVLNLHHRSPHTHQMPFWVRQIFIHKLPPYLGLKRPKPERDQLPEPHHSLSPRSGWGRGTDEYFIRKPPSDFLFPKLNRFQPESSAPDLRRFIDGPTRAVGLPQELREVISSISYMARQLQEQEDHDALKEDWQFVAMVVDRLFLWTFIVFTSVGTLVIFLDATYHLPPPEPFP
T6 sequence (P04760 23-519): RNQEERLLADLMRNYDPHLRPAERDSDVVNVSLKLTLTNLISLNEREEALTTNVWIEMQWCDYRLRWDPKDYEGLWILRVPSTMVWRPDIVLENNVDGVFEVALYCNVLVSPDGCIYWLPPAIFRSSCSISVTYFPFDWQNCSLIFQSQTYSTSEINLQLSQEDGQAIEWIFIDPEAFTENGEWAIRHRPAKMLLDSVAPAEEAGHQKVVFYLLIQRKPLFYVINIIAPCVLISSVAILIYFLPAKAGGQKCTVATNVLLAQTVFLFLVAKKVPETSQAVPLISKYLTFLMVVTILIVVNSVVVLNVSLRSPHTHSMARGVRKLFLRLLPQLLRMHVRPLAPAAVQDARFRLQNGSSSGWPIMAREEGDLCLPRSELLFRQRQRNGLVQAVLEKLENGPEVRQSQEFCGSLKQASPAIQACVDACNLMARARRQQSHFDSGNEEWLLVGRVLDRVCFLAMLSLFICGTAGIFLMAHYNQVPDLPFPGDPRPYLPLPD
T6 sequence (P02716 25-520): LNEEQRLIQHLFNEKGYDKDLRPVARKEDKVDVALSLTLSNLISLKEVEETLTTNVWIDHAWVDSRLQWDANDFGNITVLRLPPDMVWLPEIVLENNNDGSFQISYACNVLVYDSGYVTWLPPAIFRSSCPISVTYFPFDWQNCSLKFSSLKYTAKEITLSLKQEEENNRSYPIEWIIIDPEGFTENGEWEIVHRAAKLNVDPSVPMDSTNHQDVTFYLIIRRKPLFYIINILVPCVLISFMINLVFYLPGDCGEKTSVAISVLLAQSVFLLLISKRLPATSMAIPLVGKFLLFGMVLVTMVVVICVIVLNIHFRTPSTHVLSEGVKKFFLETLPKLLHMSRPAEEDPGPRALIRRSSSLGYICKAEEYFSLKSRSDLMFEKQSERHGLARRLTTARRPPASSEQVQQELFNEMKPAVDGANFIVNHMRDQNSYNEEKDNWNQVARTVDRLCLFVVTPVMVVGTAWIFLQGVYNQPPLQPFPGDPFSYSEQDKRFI
Experimental: as §1, §2, §3, §4

[10] = biological target: T7, α4β2(V253F) nAChR (Rattus norvegicus, UniProt P09483+P12390, V277F); assay: Two-electrode voltage clamp of ACh currents, α4β2(V253F) nAChRs expressed in Xenopus oocytes; assay type: cell-based; details: for IC50: α4β2(V253F), ACh 10 μM
T7 construct: expressed in transfected cells; host or cells: Xenopus laevis oocytes injected with cRNA
T7 sequence (P09483 31-630, stated change not applied): as the sequence (P09483 31-630) above
T7 sequence (P12390 25-500 V277F): as the sequence (P12390 25-500) above, with V253F counted along it
Experimental: as §5, §1, §2, §3, §4

[11] = VH −60 mV, late current (1 min), read-out: IC50 (95% CI), Late
[12] = VH −60 mV, peak current, read-out: IC50 (95% CI), Peak
[13] = VH −80 mV, late current (1 min), read-out: IC50 (95% CI), Late
[14] = VH −80 mV, peak current, read-out: IC50 (95% CI), Peak
[15] = VH −100 mV, late current (1 min), read-out: IC50 (95% CI), Late
[16] = VH −100 mV, peak current, read-out: IC50 (95% CI), Peak
[17] = α3β4, after co-application of 10 μM toxin, ACh 100 μM, −80 mV

With `CCCC(=O)N[C@@H](Cc1ccc(O)cc1)C(=O)NCCCNCCCCNCCCN` [PhTX-343] the IC50 ([1]; Late, α4β4, VH −60 mV, late current (1 min)) was 170 nM, the IC50 ([1]; Late, α4β4, VH −80 mV, late current (1 min)) was 65 nM and the IC50 ([1]; Late, α4β4, VH −100 mV, late current (1 min)) was 27 nM. For the same compound, the IC50 ([1]; Peak, α4β4, VH −60 mV, peak current) was 970 nM, the IC50 ([1]; Peak, α4β4, VH −80 mV, peak current) was 350 nM and the IC50 ([1]; Peak, α4β4, VH −100 mV, peak current) was 290 nM. The “recovery of peak current after six ACh applications (36 min)” value (shortened to “recovery of peak current”) ([1]; α4β4, 10 μM toxin, −80 mV) was “very limited or absent”, the “decrease of peak current IC50 from −60 mV to VH −100 mV” value (“decrease of peak current IC50” for short) ([1]; α4β4, peak current) was 3.3 fold and the “times less sensitive than the most sensitive subtype” value ([1]; α4β4 vs α3β4 (for PhTX-12: α1β1γδ along with α3β4), late current IC50, −80 mV) was 5 times. The “late current IC50 lower than that for α4β2” value ([1]; α4β4 vs α4β2, late current) was ~5 fold, the “peak current IC50 lower than that for α4β2” value ([1]; α4β4 vs α4β2, peak current) was “roughly 3 fold” and the “increase in late current IC50 as compared to α3β4” value ([2]; α3β4(F255V) vs α3β4, late current, −80 mV) was “did not see the expected increase”. For the same compound, the “reduction in peak current IC50 as compared to α3β4” value ([2]; α3β4(F255V) vs α3β4, peak current, −80 mV) was 2.1 fold, the IC50 [2, 11] was 74 nM and the IC50 [2, 12] was 310 nM. It also gave an IC50 [2, 13] of 12 nM, an IC50 [2, 14] of 38 nM and an IC50 [2, 15] of 5 nM. The IC50 [2, 16] was 17 nM, the IC50 ([3]; Late, α7, VH −60 mV, based on the area under the current trace (no stable late current)) was 6560 nM and the IC50 ([3]; Late, α7, VH −80 mV, based on the area under the current trace (no stable late current)) was 5060 nM. It also gave an IC50 ([3]; Late, α7, VH −100 mV, based on the area under the current trace (no stable late current)) of 6770 nM, an IC50 ([3]; Peak, α7, VH −60 mV, peak current) of 6710 nM and an IC50 ([3]; Peak, α7, VH −80 mV, peak current) of 6480 nM. For the same compound, the IC50 ([3]; Peak, α7, VH −100 mV, peak current) was 8800 nM, the “voltage dependence of inhibition” value ([3]; homomeric α7, VH −60 to −100 mV) was “voltage-independent” and the “surmountability of peak current inhibition by increasing ACh concentrations” value ([3]; α7, 30 μM toxin, peak current, −80 mV) was “surmountable”. For the same compound, the reversibility of inhibition ([3]; α7, 30 μM toxin, washing in frog Ringer solution, −80 mV) was “reversible after 6 min”, the “times less sensitive than the most sensitive subtype” value ([3]; α7 vs α3β4 (for PhTX-12: α1β1γδ along with α3β4), late current IC50, −80 mV) was 422 times and the IC50 ([4]; Late, α3β2, VH −60 mV, late current (1 min)) was 1590 nM. The IC50 ([4]; Late, α3β2, VH −80 mV, late current (1 min)) was 1370 nM, the IC50 ([4]; Late, α3β2, VH −100 mV, late current (1 min)) was 370 nM and the IC50 ([4]; Peak, α3β2, VH −60 mV, peak current) was 64500 nM. The IC50 ([4]; Peak, α3β2, VH −80 mV, peak current) was 9260 nM, the IC50 ([4]; Peak, α3β2, VH −100 mV, peak current) was 3590 nM and the “recovery of peak current” value ([4]; α3β2, 10 μM toxin, −80 mV) was “very limited or absent”. The “decrease of peak current IC50” value ([4]; α3β2, peak current) was 18 fold, the “times less sensitive than the most sensitive subtype” value ([4]; α3β2 vs α3β4 (for PhTX-12: α1β1γδ along with α3β4), late current IC50, −80 mV) was 114 times and the IC50 ([5]; Late, α4β2, VH −60 mV, late current (1 min)) was 460 nM. For the same compound, the IC50 ([5]; Late, α4β2, VH −80 mV, late current (1 min)) was 310 nM, the IC50 ([5]; Late, α4β2, VH −100 mV, late current (1 min)) was 80 nM and the IC50 ([5]; Peak, α4β2, VH −60 mV, peak current) was 1900 nM. For the same compound, the IC50 ([5]; Peak, α4β2, VH −80 mV, peak current) was 930 nM, the IC50 ([5]; Peak, α4β2, VH −100 mV, peak current) was 140 nM and the “recovery of peak current” value ([5]; α4β2, 10 μM toxin, −80 mV) was “very limited or absent”. The “decrease of peak current IC50” value ([5]; α4β2, peak current) was 14 fold, the “times less sensitive than the most sensitive subtype” value ([5]; α4β2 vs α3β4 (for PhTX-12: α1β1γδ along with α3β4), late current IC50, −80 mV) was 26 times and the IC50 ([6]; Late, α3β4, VH −60 mV, late current (1 min), ACh 100 μM) was 88 nM. The IC50 ([6]; Late, α3β4, VH −80 mV, late current (1 min), ACh 100 μM) was 12 nM, the IC50 ([6]; Late, α3β4, VH −100 mV, late current (1 min), ACh 100 μM) was 7.7 nM and the IC50 ([6]; Peak, α3β4, VH −60 mV, peak current, ACh 100 μM) was 290 nM. The IC50 ([6]; Peak, α3β4, VH −80 mV, peak current, ACh 100 μM) was 80 nM, the IC50 ([6]; Peak, α3β4, VH −100 mV, peak current, ACh 100 μM) was 77 nM and the “recovery of late current after six ACh applications (36 min)” value [6, 17] was 69 % of control. The “recovery of peak current” value [6, 17] was 82 % of control, the “decrease of peak current IC50” value ([6]; α3β4, peak current) was 3.8 fold and the “more potent than PhTX-12, peak current inhibition” value ([6]; α3β4, peak current, −80 mV) was 33 fold. The “potency higher as compared to α3β2, peak current” value ([6]; α3β4 vs α3β2, peak current, −80 mV) was 115 fold, the IC50 [7] was 100 nM and the “effect on membrane current when applied alone” value ([8]; 100 μM applied alone, VH = −80 mV, oocytes expressing nAChRs) was “did not produce any effect on membrane current”. For the same compound, the “surmountability of late current inhibition by high ACh concentrations” value ([8]; all nAChRs including α7 and α1β1γδ, late current, −80 mV) was “not surmountable”, the “voltage dependence of inhibition” value ([8]; heteromeric nAChRs, VH −60 to −100 mV) was “strongly voltage-dependent” and the reversibility of inhibition ([8]; heteromeric neuronal nAChRs, 10 μM toxin, −80 mV) was “irreversible”. The IC50 ([9]; Late, α1β1γδ, VH −60 mV, late current (1 min)) was 18000 nM, the IC50 ([9]; Late, α1β1γδ, VH −80 mV, late current (1 min)) was 12000 nM and 11900 nM and the IC50 ([9]; Late, α1β1γδ, VH −100 mV, late current (1 min)) was 2440 nM. For the same compound, the IC50 ([9]; Peak, α1β1γδ, VH −60 mV, peak current) was 27100 nM, the IC50 ([9]; Peak, α1β1γδ, VH −80 mV, peak current) was 15100 nM and the IC50 ([9]; Peak, α1β1γδ, VH −100 mV, peak current) was 3260 nM. For the same compound, the “times less sensitive than the most sensitive subtype” value ([9]; α1β1γδ vs α3β4, late current IC50, −80 mV) was 992 times and 1000 times, the “surmountability of peak current inhibition by increasing ACh concentrations” value ([9]; α1β1γδ, 10 μM toxin, peak current, −80 mV) was “surmountable” and the reversibility of inhibition ([9]; α1β1γδ, 100 μM toxin, washing in frog Ringer solution, −80 mV) was “reversible after 6 min”. For the same compound, the “reduction in late current IC50 as compared to α4β2” value ([10]; α4β2(V253F) vs α4β2, late current, −80 mV) was 2.6 fold, the “change in peak current IC50 as compared to α4β2” value ([10]; α4β2(V253F) vs α4β2, peak current, −80 mV) was “no significant change” and the IC50 [10, 11] was 63 nM. For the same compound, the IC50 [10, 12] was 620 nM, the IC50 [10, 13] was 120 nM and the IC50 [10, 14] was 750 nM. It also gave an IC50 [10, 15] of 14 nM and an IC50 [10, 16] of 110 nM.
